This note sets out measurements from ChEMBL document CHEMBL3228002, “Sulfonated catecholamide analogues of enterobactin as iron sequestering agents” (J Med Chem, 1979).

The nature of this test: Iron sequestering activity of the compound assessed as [Fe(H2O)6]3+ formation at 10^-5 M at pH 7.4 by spectrophotometrically in presence of 10^-6 M total iron concentration.

With `CC(=O)N(O)CCCCCNC(=O)CCC(=O)N(O)CCCCCNC(=O)CCC(=O)N(O)CCCCCN`, the pM was 26.6. Regarding `CN(C)C(=O)c1cc(S(=O)(=O)O)cc(O)c1O`, the pM came out at 19.2. For `O=C(NCc1cc(CNC(=O)c2cc(S(=O)(=O)O)cc(O)c2O)cc(CNC(=O)c2cc(S(=O)(=O)O)cc(O)c2O)c1)c1cc(S(=O)(=O)O)cc(O)c1O` the value was 29.4. With `O=C(N[C@H]1COC(=O)[C@@H](NC(=O)c2cccc(O)c2O)COC(=O)[C@@H](NC(=O)c2cccc(O)c2O)COC1=O)c1cccc(O)c1O`, the pM worked out at 35.5. With `O=C(NCc1cc(CNC(=O)c2cccc(O)c2O)cc(CNC(=O)c2cccc(O)c2O)c1)c1cccc(O)c1O`, the pM was found to be 29.1. Under `O=C(NCCCCN(CCCNC(=O)c1cc(S(=O)(=O)O)cc(O)c1O)C(=O)c1cc(S(=O)(=O)O)cc(O)c1O)c1cc(S(=O)(=O)O)cc(O)c1O` stands 28.5; under `O=C(NCc1cc(S(=O)(=O)O)cc(O)c1O)c1cc(C(=O)NCc2cc(S(=O)(=O)O)cc(O)c2O)cc(C(=O)NCc2cc(S(=O)(=O)O)cc(O)c2O)c1`, 25.1.
